{"source": "paper PMC4492759", "about": "“Pharmacological profiling of the hemodynamic effects of cannabinoid ligands: a combined in vitro and in vivo approach” (Pharmacology Research & Perspectives, 2015)", "key": {"rat CB1": {"target": "T1, rat CB1 (Rattus norvegicus, UniProt P20272)", "T1 construct": "expressed in transfected cells; host or cells: HEK293s, transient transfection; membranes prepared", "T1 sequence (P20272 whole entry)": "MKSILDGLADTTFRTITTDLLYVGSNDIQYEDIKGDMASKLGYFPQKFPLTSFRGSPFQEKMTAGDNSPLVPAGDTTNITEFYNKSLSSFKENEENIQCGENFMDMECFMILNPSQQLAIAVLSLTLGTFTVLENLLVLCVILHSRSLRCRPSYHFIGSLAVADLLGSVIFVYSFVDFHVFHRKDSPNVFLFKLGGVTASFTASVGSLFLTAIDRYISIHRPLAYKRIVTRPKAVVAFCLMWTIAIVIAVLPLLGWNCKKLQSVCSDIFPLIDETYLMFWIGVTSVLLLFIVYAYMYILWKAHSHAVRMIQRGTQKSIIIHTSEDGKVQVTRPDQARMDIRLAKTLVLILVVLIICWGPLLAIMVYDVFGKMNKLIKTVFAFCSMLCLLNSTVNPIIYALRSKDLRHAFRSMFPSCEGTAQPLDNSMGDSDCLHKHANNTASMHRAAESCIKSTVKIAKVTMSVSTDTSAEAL", "test": "[35S]-GTPγS binding, membranes of HEK293s cells transfected with rat CB1", "assay_type": "biochemical", "details": "agonist mode; mean ± SEM, at least three experiments; read-out: CB1 EC50, Rat", "protocol": "(§1) Antagonist assays were performed similarly, with the addition of an EC80 concentration of CP55940 as a nonselective CB1/CB2 agonist in conjunction with the ligand to be tested. Nonspecific binding was determined in the presence of 20 μmol/L unlabeled GTPγS. The reaction was terminated by addition of ice-cold wash buffer (50 mmol/L Tris-HCl, 5 mmol/L MgCl2, 50 mmol/L NaCl; pH 7.4) followed by rapid filtration under vacuum through 96-well B-glass fiber filter plates (PerkinElmer, Waltham, Massachusetts, USA) using a Biomek FX (Beckman Coulter, Bromma, Sweden). The filter plates were dried (30 min at 50°C) before scintillation liquid (PerkinElmer) was added onto the filters and the bound radioactivity was determined using a scintillation counter (Wallac). Data were fitted with a four-parameter logistic fit using the equation y = A + (B − A)/1 + ((C/x)^D), where A is no activation, B is full activation, C is the EC50, and D is the Hill slope. All data were based on at least three independent experiments."}, "mouse CB1": {"target": "T2, mouse CB1 (Mus musculus, UniProt P47746)", "T2 construct": "expressed in transfected cells; host or cells: HEK293s, transient transfection; membranes prepared", "T2 sequence (P47746 whole entry)": "as the sequence (P20272 whole entry) above, with E95D counted along it", "test": "[35S]-GTPγS binding, membranes of HEK293s cells transfected with mouse CB1", "assay_type": "biochemical", "details": "agonist mode; mean ± SEM, at least three experiments; read-out: CB1 EC50, Mouse", "protocol": "as §1"}, "mouse GPR55": {"target": "T3, mouse GPR55 (Mus musculus, UniProt Q3UJF0)", "T3 construct": "expressed in transfected cells; host or cells: HEK293s, transient transfection; membranes prepared", "T3 sequence (Q3UJF0 whole entry)": "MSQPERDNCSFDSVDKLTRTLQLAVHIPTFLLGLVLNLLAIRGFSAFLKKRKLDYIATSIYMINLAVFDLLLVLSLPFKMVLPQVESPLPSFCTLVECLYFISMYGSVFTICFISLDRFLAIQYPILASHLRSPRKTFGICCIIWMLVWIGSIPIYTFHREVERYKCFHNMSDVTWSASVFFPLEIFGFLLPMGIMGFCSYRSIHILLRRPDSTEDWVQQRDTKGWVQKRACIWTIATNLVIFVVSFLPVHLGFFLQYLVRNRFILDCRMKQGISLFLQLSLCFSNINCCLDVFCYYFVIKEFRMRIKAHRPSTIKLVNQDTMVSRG", "test": "[35S]-GTPγS binding, membranes of HEK293s cells transfected with mouse GPR55", "assay_type": "biochemical", "details": "agonist mode; mean ± SEM, at least three experiments; read-out: GPR55 EC50, Mouse", "protocol": "as §1, with “HEK293s cells were transiently transfected with cDNA encoding rat or mouse CB1 or GPR55 and membranes were prepared as previously described (Ryberg et al. [2007]). In short, agonist activities in [^35S]-GTPγS binding assays were determined by the addition of ligand at 30°C for 45 min in membrane buffer [50 mmol/L NaCl, 5 mmol/L MgCl2, 0.5 mmol/L EDTA, 25 mmol/L HEPES (all Sigma, Gillingham, Dorset, UK); pH 7.4] containing 0.05 μg μL^−1 of membrane protein with 0.01% BSA, 25 μmol/L guanosine 5′-diphosphate (GDP), 100 μmol/L dithiothreitol (DTT), and 0.53 nmol/L [^35S]GTPγS (PerkinElmer) in a final volume of 200 μL. Antagonist” for “Antagonist”"}, "conscious SHR": {"system": "conscious SHR", "test": "Blood pressure and heart rate responses in conscious hypertensive rats (SHR)"}, "[1]": {"system": "conscious WT, CB1−/− and GPR55−/− mice", "test": "Blood pressure and heart rate responses in conscious mice (WT, CB1−/−, GPR55−/−)", "details": "for HR bradycardic response - area above the curve / MABP depressor response - area above the curve: metoprolol pretreated"}, "[2]": {"details": "O-1602 5 mg kg−1, +AM281 (10 mg kg−1), metoprolol pretreated"}, "[3]": {"details": "O-1602 5 mg kg−1, +CBD (5 mg kg−1), metoprolol pretreated"}, "[4]": {"details": "O-1602 5 mg kg−1, +CBD and AM281, metoprolol pretreated"}, "[5]": {"details": "O-1602 10 mg kg−1, +AM281 (10 mg kg−1), metoprolol pretreated"}, "[6]": {"details": "O-1602 10 mg kg−1, +CBD (5 mg kg−1), metoprolol pretreated"}, "[7]": {"details": "O-1602 10 mg kg−1, +CBD and AM281, metoprolol pretreated"}, "[8]": {"details": "O-1602 10 mg kg−1, Control, metoprolol pretreated"}, "[9]": {"details": "O-1602 20 mg kg−1, +AM281 (10 mg kg−1), metoprolol pretreated"}, "[10]": {"details": "O-1602 20 mg kg−1, +CBD (5 mg kg−1), metoprolol pretreated"}, "[11]": {"details": "O-1602 20 mg kg−1, +CBD and AM281, metoprolol pretreated"}, "[12]": {"details": "O-1602 20 mg kg−1, Control, metoprolol pretreated"}, "[13]": {"details": "O-1602 5 mg kg−1, +CBD (5 mg kg−1)"}, "[14]": {"details": "O-1602 5 mg kg−1, column Control"}, "[15]": {"details": "O-1602 10 mg kg−1, +CBD (5 mg kg−1)"}, "[16]": {"details": "O-1602 10 mg kg−1, column Control"}, "[17]": {"details": "O-1602 15 mg kg−1, +CBD (5 mg kg−1)"}, "[18]": {"details": "O-1602 15 mg kg−1, column Control"}}}
{"smiles": "C=C(C)[C@@H]1CCC(C)=C[C@H]1c1c(C)cc(O)cc1O", "note": "[O-1602]", "values": [{"measurement": "EC50", "setting": "rat CB1", "result": "> 30", "unit": "µM"}, {"measurement": "EC50", "setting": "mouse CB1", "result": "> 30", "unit": "µM"}, {"measurement": "EC50", "setting": "mouse GPR55", "result": "0.012 ± 0.004", "unit": "µM"}, {"measurement": "HR tachycardic response – area under the curve", "setting": "conscious SHR; [2]", "result": "39 ± 11", "unit": "arbitrary units"}, {"measurement": "MABP depressor response - area above the curve", "setting": "conscious SHR; [2]", "result": "196 ± 44", "unit": "arbitrary units"}, {"measurement": "HR tachycardic response – area under the curve", "setting": "conscious SHR; [3]", "result": "68 ± 11", "unit": "arbitrary units"}, {"measurement": "MABP depressor response - area above the curve", "setting": "conscious SHR; [3]", "result": "189 ± 32", "unit": "arbitrary units"}, {"measurement": "HR tachycardic response – area under the curve", "setting": "conscious SHR; [4]", "result": "53 ± 22", "unit": "arbitrary units"}, {"measurement": "MABP depressor response - area above the curve", "setting": "conscious SHR; [4]", "result": "41 ± 17", "unit": "arbitrary units"}, {"measurement": "MABP depressor response - area above the curve", "setting": "conscious SHR; O-1602 5 mg kg−1, Control, metoprolol 10 mg kg−1 i.v. pretreated", "result": "59 ± 21", "unit": "arbitrary units"}, {"measurement": "HR tachycardic response – area under the curve", "setting": "conscious SHR; O-1602 5 mg kg−1, Control, metoprolol pretreated", "result": "61 ± 24", "unit": "arbitrary units"}, {"measurement": "HR tachycardic response – area under the curve", "setting": "conscious SHR; [5]", "result": "40 ± 12", "unit": "arbitrary units"}, {"measurement": "MABP depressor response - area above the curve", "setting": "conscious SHR; [5]", "result": "160 ± 31", "unit": "arbitrary units"}, {"measurement": "HR tachycardic response – area under the curve", "setting": "conscious SHR; [6]", "result": "79 ± 29", "unit": "arbitrary units"}, {"measurement": "MABP depressor response - area above the curve", "setting": "conscious SHR; [6]", "result": "23 ± 17", "unit": "arbitrary units"}, {"measurement": "HR tachycardic response – area under the curve", "setting": "conscious SHR; [7]", "result": "37 ± 32", "unit": "arbitrary units"}, {"measurement": "MABP depressor response - area above the curve", "setting": "conscious SHR; [7]", "result": "180 ± 29", "unit": "arbitrary units"}, {"measurement": "HR tachycardic response – area under the curve", "setting": "conscious SHR; [8]", "result": "18 ± 8", "unit": "arbitrary units"}, {"measurement": "MABP depressor response - area above the curve", "setting": "conscious SHR; [8]", "result": "56 ± 22", "unit": "arbitrary units"}, {"measurement": "HR tachycardic response – area under the curve", "setting": "conscious SHR; [9]", "result": "56 ± 26", "unit": "arbitrary units"}, {"measurement": "MABP depressor response - area above the curve", "setting": "conscious SHR; [9]", "result": "191 ± 30", "unit": "arbitrary units"}, {"measurement": "HR tachycardic response – area under the curve", "setting": "conscious SHR; [10]", "result": "98 ± 32", "unit": "arbitrary units"}, {"measurement": "MABP depressor response - area above the curve", "setting": "conscious SHR; [10]", "result": "73 ± 38", "unit": "arbitrary units"}, {"measurement": "HR tachycardic response – area under the curve", "setting": "conscious SHR; [11]", "result": "38 ± 16", "unit": "arbitrary units"}, {"measurement": "MABP depressor response - area above the curve", "setting": "conscious SHR; [11]", "result": "199 ± 29", "unit": "arbitrary units"}, {"measurement": "HR tachycardic response – area under the curve", "setting": "conscious SHR; [12]", "result": "72 ± 13", "unit": "arbitrary units"}, {"measurement": "MABP depressor response - area above the curve", "setting": "conscious SHR; [12]", "result": "26 ± 16", "unit": "arbitrary units"}, {"measurement": "changes in MABP or HR", "setting": "conscious SHR; O-1602 alone, three ascending doses 5, 10, and 20 mg kg−1 spaced 20 min apart", "result": "did not induce any changes"}, {"measurement": "HR bradycardic response - area above the curve", "setting": "[1]; O-1602 5 mg kg−1, +AM281", "result": "55.3 ± 20.9", "unit": "arbitrary units"}, {"measurement": "MABP depressor response - area above the curve", "setting": "[1]; O-1602 5 mg kg−1, +AM281", "result": "64.6 ± 17.5", "unit": "arbitrary units"}, {"measurement": "HR bradycardic response - area above the curve", "setting": "[1]; O-1602 5 mg kg−1, +CBD & AM281", "result": "154.8 ± 61.7", "unit": "arbitrary units"}, {"measurement": "HR bradycardic response - area above the curve", "setting": "[1]; [13]", "result": "17.4 ± 11.7", "unit": "arbitrary units"}, {"measurement": "MABP depressor response - area above the curve", "setting": "[1]; [13]", "result": "99.6 ± 25.8", "unit": "arbitrary units"}, {"measurement": "MABP depressor response - area above the curve", "setting": "[1]; O-1602 5 mg kg−1, +CBD and AM281", "result": "73.3 ± 24.5", "unit": "arbitrary units"}, {"measurement": "HR bradycardic response - area above the curve", "setting": "[1]; [14]", "result": "41.1 ± 20.8", "unit": "arbitrary units"}, {"measurement": "MABP depressor response - area above the curve", "setting": "[1]; [14]", "result": "91.9 ± 38.2", "unit": "arbitrary units"}, {"measurement": "HR bradycardic response - area above the curve", "setting": "[1]; O-1602 10 mg kg−1, +AM281", "result": "130.5 ± 20.5", "unit": "arbitrary units"}, {"measurement": "MABP depressor response - area above the curve", "setting": "[1]; O-1602 10 mg kg−1, +AM281", "result": "95.2 ± 6.5", "unit": "arbitrary units"}, {"measurement": "HR bradycardic response - area above the curve", "setting": "[1]; O-1602 10 mg kg−1, +CBD & AM281", "result": "298.2 ± 111.7", "unit": "arbitrary units"}, {"measurement": "HR bradycardic response - area above the curve", "setting": "[1]; [15]", "result": "186.8 ± 42.1", "unit": "arbitrary units"}, {"measurement": "MABP depressor response - area above the curve", "setting": "[1]; [15]", "result": "73.5 ± 17.8", "unit": "arbitrary units"}, {"measurement": "MABP depressor response - area above the curve", "setting": "[1]; O-1602 10 mg kg−1, +CBD and AM281", "result": "114.6 ± 17.6", "unit": "arbitrary units"}, {"measurement": "HR bradycardic response - area above the curve", "setting": "[1]; [16]", "result": "48.7 ± 25.4", "unit": "arbitrary units"}, {"measurement": "MABP depressor response - area above the curve", "setting": "[1]; [16]", "result": "44.1 ± 9.6", "unit": "arbitrary units"}, {"measurement": "HR bradycardic response - area above the curve", "setting": "[1]; O-1602 15 mg kg−1, +AM281", "result": "183.1 ± 50.9", "unit": "arbitrary units"}, {"measurement": "MABP depressor response - area above the curve", "setting": "[1]; O-1602 15 mg kg−1, +AM281", "result": "101.5 ± 4.1", "unit": "arbitrary units"}, {"measurement": "HR bradycardic response - area above the curve", "setting": "[1]; O-1602 15 mg kg−1, +CBD & AM281", "result": "286.6 ± 105.4", "unit": "arbitrary units"}, {"measurement": "HR bradycardic response - area above the curve", "setting": "[1]; [17]", "result": "197.1 ± 17.1", "unit": "arbitrary units"}, {"measurement": "MABP depressor response - area above the curve", "setting": "[1]; [17]", "result": "148.9 ± 17.1", "unit": "arbitrary units"}, {"measurement": "MABP depressor response - area above the curve", "setting": "[1]; O-1602 15 mg kg−1, +CBD and AM281", "result": "119.7 ± 18.1", "unit": "arbitrary units"}, {"measurement": "HR bradycardic response - area above the curve", "setting": "[1]; [18]", "result": "95.3 ± 6.5", "unit": "arbitrary units"}, {"measurement": "MABP depressor response - area above the curve", "setting": "[1]; [18]", "result": "61.3 ± 10.9", "unit": "arbitrary units"}, {"measurement": "effect on MABP", "setting": "[1]; O-1602, conscious CB1−/− mice", "result": "dose-dependent depressor response"}, {"measurement": "effect on HR", "setting": "[1]; O-1602 alone, highest dose tested, conscious WT mice", "result": "transient bradycardia"}, {"measurement": "effect on MABP", "setting": "[1]; O-1602 alone, conscious WT mice", "result": "no effect"}, {"measurement": "depressor response", "setting": "[1]; O-1602 in the presence of AM281 (10 mg kg−1), GPR55−/− mice", "result": "did not elicit a depressor response"}]}
